Reference: patent US20260250318A1, “COMPOSITIONS AND METHODS FOR CROSSING THE BLOOD BRAIN BARRIER” (VOYAGER THERAPEUTICS, INC., priority 2022, published 2026)

Columns and labels:
[1] = system: brain; assay: Matured TTM-001 and TTM-002 variants, NGS enrichment in mouse brain; assay type: in vivo, mice; conditions: relative to AAV9 control
[2] = system: brains, heart, liver, muscle, and DRG of the NHPs; assay: Maturation of TTM-001 and TTM-002 capsids, NGS enrichment in NHP tissues; assay type: in vivo; conditions: relative to AAV9 control
In short: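 Variants carry mutations within and flanking the loop IV peptide insert: positions 450–466 were triplet-randomized, while positions 449–466 received low-frequency point mutations. The combined pool went into two NHPs, and each peptide was scored by NGS enrichment ratio against AAV9.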

[3] = NGS fold-enrichment of matured AAV capsid variants, NHP brain, RNA
[4] = NGS fold-enrichment, mouse brain
[5] = NGS fold-enrichment of RNA, NHP brain
[6] = NGS fold-enrichment, NHP liver DNA
[7] = NGS fold-enrichment, NHP liver RNA
[8] = NGS fold-enrichment, NHP muscle
[9] = NGS fold-enrichment, brain of mice
[10] = NGS fold-enrichment, DRG of NHPs
[11] = NGS fold-enrichment, RNA, brain of NHPs
[12] = NGS fold-enrichment, heart of NHPs
[13] = NGS fold-enrichment, liver DNA of NHPs
[14] = NGS fold-enrichment, liver RNA of NHPs
[15] = NGS fold-enrichment, muscle of NHPs

Sequence | Fold Enrichment relative to AAV9, Brain (Mouse) [1, 4] [fold] | Fold Enrichment relative to AAV9, Brain (NHP) [2, 5] [fold] | Fold Enrichment relative to AAV9, DRG (NHP) ([2]; NGS fold-enrichment, NHP DRG) [fold] | Fold Enrichment relative to AAV9, Heart (NHP) ([2]; NGS fold-enrichment, NHP heart) [fold] | Fold Enrichment relative to AAV9, Liver DNA (NHP) [2, 6] [fold] | Fold Enrichment relative to AAV9, Liver RNA (NHP) [2, 7] [fold] | Fold Enrichment relative to AAV9, Muscle (NHP) [2, 8] [fold] | Fold Enrichment relative to AAV9, Brain (Mouse) [1, 9] [fold] | Fold Enrichment relative to AAV9, DRG (NHP) [2, 10] [fold] | Fold Enrichment relative to AAV9, Brain (NHP) [2, 11] [fold] | Fold Enrichment relative to AAV9, Heart (NHP) [2, 12] [fold] | Fold Enrichment relative to AAV9, Liver DNA (NHP) [2, 13] [fold] | Fold Enrichment relative to AAV9, Liver RNA (NHP) [2, 14] [fold] | Fold Enrichment relative to AAV9, Muscle (NHP) [2, 15] [fold] | further results
KTRDASGSPHSKAQNQQT | – | – | – | – | – | – | – | – | – | – | – | – | – | – | Fold Enrichment relative to AAV9, Brain (Mouse) ([1]; mouse brain): 52.089 fold; Fold Enrichment relative to AAV9, Brain (NHP) [2, 3]: 52.861 fold; Fold Enrichment relative to AAV9, DRG (NHP) ([2]; NHP DRG): 0.000 fold; Fold Enrichment relative to AAV9, Heart (NHP) ([2]; NHP heart): 0.000 fold; Fold Enrichment relative to AAV9, Liver DNA (NHP) ([2]; NHP liver, DNA): 0.402 fold; Fold Enrichment relative to AAV9, Liver RNA (NHP) ([2]; NHP liver, RNA): 1.062 fold; Fold Enrichment relative to AAV9, Muscle (NHP) ([2]; NHP muscle): 0.010 fold
KTESAHDSPHKSGQNQQT | 13.338 | 80.810 | 0.000 | 0.039 | 0.000 | 0.000 | 0.000 | – | – | – | – | – | – | – | –
KAINGHDSPHKSGPRQQT | 8.259 | 145.142 | 0.000 | 0.408 | 0.000 | 0.000 | 0.000 | – | – | – | – | – | – | – | –
KTINGHDSPHKSRQSQHT | 8.324 | 88.544 | 0.499 | 0.046 | 0.032 | 0.059 | 0.000 | – | – | – | – | – | – | – | –
KTINGGGSPHSKAQNQQC | 53.840 | 89.301 | 0.219 | 0.000 | 0.319 | 0.287 | 0.000 | 53.840 | 0.219 | 89.301 | 0.000 | 0.319 | 0.287 | 0.000 | –
KTINGSGSPHSKAQRMNT | – | – | – | – | – | – | – | – | – | – | – | – | – | – | Fold Enrichment relative to AAV9, Brain (Mouse) ([1]; mouse brain): 97.975 fold; Fold Enrichment relative to AAV9, Brain (NHP) [2, 3]: 50.686 fold; Fold Enrichment relative to AAV9, DRG (NHP) ([2]; NHP DRG): 0.000 fold; Fold Enrichment relative to AAV9, Heart (NHP) ([2]; NHP heart): 108.747 fold; Fold Enrichment relative to AAV9, Liver DNA (NHP) ([2]; NHP liver, DNA): 0.264 fold; Fold Enrichment relative to AAV9, Liver RNA (NHP) ([2]; NHP liver, RNA): 0.943 fold; Fold Enrichment relative to AAV9, Muscle (NHP) ([2]; NHP muscle): 0.019 fold
KTINGSGSPHSKAQAMHT | – | – | – | – | – | – | – | 84.056 | 0.000 | 62.756 | 0.000 | 0.393 | 0.976 | 0.010 | –
KTVNGGGSPHSKAQHQQT | – | – | – | – | – | – | – | – | – | – | – | – | – | – | Fold Enrichment relative to AAV9, Brain (Mouse) ([1]; mouse brain): 138.544 fold; Fold Enrichment relative to AAV9, Brain (NHP) [2, 3]: 58.602 fold; Fold Enrichment relative to AAV9, DRG (NHP) ([2]; NHP DRG): 0.729 fold; Fold Enrichment relative to AAV9, Heart (NHP) ([2]; NHP heart): 0.000 fold; Fold Enrichment relative to AAV9, Liver DNA (NHP) ([2]; NHP liver, DNA): 0.043 fold; Fold Enrichment relative to AAV9, Liver RNA (NHP) ([2]; NHP liver, RNA): 0.000 fold; Fold Enrichment relative to AAV9, Muscle (NHP) ([2]; NHP muscle): 0.000 fold
KTDRMSGSPHSKAQNQQT | – | – | – | – | – | – | – | 104.890 | 0.000 | 65.143 | 0.000 | 0.103 | 0.332 | 0.000 | –
KSELGHDSPHKSGQNQQT | 13.285 | 107.059 | 0.000 | 0.005 | 0.055 | 0.000 | 0.000 | – | – | – | – | – | – | – | –
KTIQDGGSPHSKAQNQQT | – | – | – | – | – | – | – | 87.522 | 0.000 | 59.865 | 0.000 | 0.789 | 1.435 | 0.116 | –
KTINGSGSPHSKAQSPPT | – | – | – | – | – | – | – | 97.111 | 0.069 | 71.632 | 0.047 | 0.425 | 0.179 | 0.274 | –
KTINGHDSPHKSRQDQHT | 8.540 | 75.595 | 0.000 | 0.049 | 0.045 | 0.030 | 0.118 | – | – | – | – | – | – | – | –
KTINGHDSPHKSGQSVPT | 6.768 | 77.840 | 0.000 | 0.003 | 0.061 | 0.136 | 0.000 | – | – | – | – | – | – | – | –
KTVNGSGSPHSKAQNLQA | – | – | – | – | – | – | – | 50.934 | 0.000 | 66.379 | 0.000 | 0.132 | 0.000 | 0.000 | –
KTINGSGSPHSKAQAPST | – | – | – | – | – | – | – | 115.528 | 0.200 | 60.696 | 0.005 | 0.263 | 0.751 | 0.000 | –
KTINGSGSPHSKAQRTCT | – | – | – | – | – | – | – | – | – | – | – | – | – | – | Fold Enrichment relative to AAV9, Brain (Mouse) ([1]; mouse brain): 90.146 fold; Fold Enrichment relative to AAV9, Brain (NHP) [2, 3]: 57.863 fold; Fold Enrichment relative to AAV9, DRG (NHP) ([2]; NHP DRG): 0.000 fold; Fold Enrichment relative to AAV9, Heart (NHP) ([2]; NHP heart): 0.140 fold; Fold Enrichment relative to AAV9, Liver DNA (NHP) ([2]; NHP liver, DNA): 1.716 fold; Fold Enrichment relative to AAV9, Liver RNA (NHP) ([2]; NHP liver, RNA): 1.855 fold; Fold Enrichment relative to AAV9, Muscle (NHP) ([2]; NHP muscle): 0.129 fold
KTINGNDSPHKSVQNHQT | 7.920 | 120.002 | 0.000 | 0.099 | 0.000 | 0.000 | 0.788 | – | – | – | – | – | – | – | –
